Experimental data reported in ChEMBL document CHEMBL4725412, “Augmenting the Activity of Macrolide Adjuvants against Acinetobacter baumannii” (2020).
The source made the active and inactive calls. No cut-off for these calls is given here.

Legend:
Acinetobacter baumannii [1] = assay: Potentiation of clarithromycin-induced antibacterial activity against Acinetobacter baumannii AB5075 assessed as clarithromycin MIC at 20 uM incubated for 16 hrs by broth microdilution method (reference value: […] ug/ml); format: functional
Acinetobacter baumannii [2] = assay: Potentiation of clarithromycin-induced antibacterial activity against Acinetobacter baumannii AB5075 assessed as clarithromycin MIC at 25 uM incubated for 16 hrs by broth microdilution method (reference value: […] ug/ml); format: functional
Acinetobacter baumannii [3] = assay: Antibacterial activity against Acinetobacter baumannii AB5075 assessed as reduction in microbial growth incubated for 16 hrs by broth microdilution method; format: functional
Acinetobacter baumannii [4] = assay: Potentiation of clarithromycin-induced antibacterial activity against Acinetobacter baumannii AB5075 assessed as clarithromycin MIC at 10 uM incubated for 16 hrs by broth microdilution method (reference value: […] ug/ml); format: functional
Acinetobacter baumannii [5] = assay: Potentiation of clarithromycin-induced antibacterial activity against Acinetobacter baumannii AB5075 assessed as clarithromycin MIC at 5 uM incubated for 16 hrs by broth microdilution method (reference value: […] ug/ml); format: functional
Acinetobacter baumannii [6] = assay: Potentiation of Colistin-induced Acinetobacter baumannii AB5075 assessed as Colistin MIC at 30 uM by broth microdilution method; format: functional, organism-based
Acinetobacter baumannii [7] = assay: Potentiation of clarithromycin-induced antibacterial activity against Acinetobacter baumannii AB5075 assessed as fold reduction in clarithromycin MIC at 5 uM incubated for 16 hrs in presence of clarithromycin by broth microdilution method; format: functional
Acinetobacter baumannii [8] = assay: Potentiation of clarithromycin-induced antibacterial activity against Acinetobacter baumannii AB5075 assessed as fold reduction in clarithromycin MIC at 30 uM incubated for 16 hrs in presence of clarithromycin by broth microdilution method; format: functional
Acinetobacter baumannii [9] = assay: Potentiation of clarithromycin-induced antibacterial activity against Acinetobacter baumannii AB5075 assessed as fold reduction in clarithromycin MIC at 10 uM incubated for 16 hrs in presence of clarithromycin by broth microdilution method; format: functional
Acinetobacter baumannii [10] = assay: Potentiation of clarithromycin-induced antibacterial activity against Acinetobacter baumannii AB5075 assessed as fold reduction in clarithromycin MIC at 7.5 uM incubated for 16 hrs in presence of clarithromycin broth microdilution method; format: functional
Acinetobacter baumannii [11] = assay: Potentiation of clarithromycin-induced antibacterial activity against Acinetobacter baumannii AB5075 assessed as clarithromycin MIC at 7.5 uM incubated for 16 hrs by broth microdilution method (reference value: […] ug/ml); format: functional
Acinetobacter baumannii [12] = assay: Potentiation of clarithromycin-induced antibacterial activity against Acinetobacter baumannii AB5075 assessed as clarithromycin MIC at […] incubated for 16 hrs by broth microdilution method (reference value: […] ug/ml); format: functional; details: dose 30 µM
Acinetobacter baumannii [13] = assay: Potentiation of clarithromycin-induced antibacterial activity against Acinetobacter baumannii AB5075 assessed as fold reduction in clarithromycin MIC at 20 uM incubated for 16 hrs in presence of clarithromycin by broth microdilution method; format: functional
Acinetobacter baumannii [14] = assay: Potentiation of clarithromycin-induced antibacterial activity against Acinetobacter baumannii AB5075 assessed as clarithromycin MIC at 15 uM incubated for 16 hrs by broth microdilution method (reference value: […] ug/ml); format: functional

`Nc1nc(-c2ccc(NC(=O)c3c(Cl)cc(Cl)cc3Cl)cc2)c[nH]1` was tested. Which MIC (Acinetobacter baumannii [1]) did it give?
Its MIC is 16 µM.

And the MIC (Acinetobacter baumannii [2])?
The MIC was 8 µM.

What about the MIC (Acinetobacter baumannii [3]) of the same compound?
Its MIC is 100 µM.

And the MIC (Acinetobacter baumannii [4])?
Its MIC is 32 µM.

Which results are given for `Cc1ccc(C(=O)Nc2ccc(-c3c[nH]c(N)n3)cc2)cc1F`?
MIC (Acinetobacter baumannii [5]): 16 µM; MIC (Acinetobacter baumannii [3]): 50 µM; MIC (Acinetobacter baumannii [4]): 1 µM

What does the source list for `Nc1ncc(-c2ccc(NC(=O)c3ccc(Br)cc3F)cc2)[nH]1`?
MIC (Acinetobacter baumannii [1]): 16 µM; Activity (Acinetobacter baumannii [6]): inactive; MIC (Acinetobacter baumannii [3]): ≥ 200 µM; MIC (Acinetobacter baumannii [4]): 32 µM

What does the source list for `Cl.Nc1nc(-c2ccc(NC(=O)c3cc(Cl)cc(Cl)c3)cc2F)c[nH]1`?
fold change (FC) (Acinetobacter baumannii [7]): 4; MIC (Acinetobacter baumannii [1]): 0.25 µg/mL; fold change (FC) (Acinetobacter baumannii [8]): 128; fold change (FC) (Acinetobacter baumannii [9]): 64; MIC (Acinetobacter baumannii [5]): 8 µg/mL; fold change (FC) (Acinetobacter baumannii [10]): 8; MIC (Acinetobacter baumannii [11]): 4 µg/mL; MIC (Acinetobacter baumannii [3]): > 200 µM; MIC (Acinetobacter baumannii [12]): 0.5 µg/mL; MIC (Acinetobacter baumannii [4]): 0.5 µg/mL

`Cl.Nc1nc(-c2ccc(NC(=O)Nc3cc(Cl)cc(Cl)c3)cc2)c[nH]1` was tested. Which “fold change (FC)” value (Acinetobacter baumannii [7]) did it give?
The value was 4.

What about the MIC (Acinetobacter baumannii [5]) of the same compound?
The MIC was 8 µg/mL.

And the “fold change (FC)” value (Acinetobacter baumannii [10])?
Its value is 64.

And the MIC (Acinetobacter baumannii [11])?
The MIC was 0.5 µg/mL.

What about the MIC (Acinetobacter baumannii [3]) of the same compound?
Its MIC is 25 µM.

What does the source list for `Cl.Nc1nc(-c2ccc(NC(=O)c3cc(Cl)cc(Cl)c3)c(F)c2)c[nH]1`?
fold change (FC) (Acinetobacter baumannii [8]): 4; MIC (Acinetobacter baumannii [3]): > 200 µM; MIC (Acinetobacter baumannii [12]): 16 µg/mL

For `Nc1nc(-c2ccc(NC(=O)c3ccc(Br)cc3)cc2)c[nH]1`, which Activity (Acinetobacter baumannii [6]) is on record?
The Activity was “inactive”.

What about the MIC (Acinetobacter baumannii [3]) of the same compound?
The MIC was ≥ 200 µM.

Which Activity (Acinetobacter baumannii [6]) does the source give for `Cc1cc(C)cc(C(=O)Nc2ccc(-c3c[nH]c(N)n3)cc2)c1.Cl` here?
The Activity was “inactive”.

What about the MIC (Acinetobacter baumannii [3]) of the same compound?
Its MIC is ≥ 200 µM.

And the MIC (Acinetobacter baumannii [12])?
Its MIC is 2 µg/mL.

Which results are given for `Cc1cc(-c2c[nH]c(N)n2)ccc1NC(=O)c1cc(Cl)cc(Cl)c1.Cl`?
MIC (Acinetobacter baumannii [1]): 1 µg/mL; fold change (FC) (Acinetobacter baumannii [8]): 64; fold change (FC) (Acinetobacter baumannii [9]): 2; fold change (FC) (Acinetobacter baumannii [13]): 32; MIC (Acinetobacter baumannii [3]): > 200 µM; MIC (Acinetobacter baumannii [4]): 16 µg/mL

Which results are given for `Cc1cc(NC(=O)c2cc(Cl)cc(Cl)c2)ccc1-c1c[nH]c(N)n1.Cl`?
MIC (Acinetobacter baumannii [1]): 0.5 µg/mL; fold change (FC) (Acinetobacter baumannii [8]): 64; fold change (FC) (Acinetobacter baumannii [9]): 4; fold change (FC) (Acinetobacter baumannii [13]): 64; MIC (Acinetobacter baumannii [3]): > 200 µM; MIC (Acinetobacter baumannii [12]): 0.5 µg/mL; MIC (Acinetobacter baumannii [4]): 8 µg/mL

How did the MIC (Acinetobacter baumannii [1]) turn out when `Cl.Nc1nc(-c2c(F)cc(NC(=O)c3cc(Cl)cc(Cl)c3)cc2F)c[nH]1` was run?
Its MIC is 8 µg/mL.

What about the “fold change (FC)” value (Acinetobacter baumannii [9]) of the same compound?
The value was 2.

What about the MIC (Acinetobacter baumannii [12]) of the same compound?
The MIC was 4 µg/mL.

Which results are given for `Cl.Nc1ncc(-c2ccc(NC(=O)c3ccc(Cl)c(Cl)c3)cc2)[nH]1`?
MIC (Acinetobacter baumannii [1]): 0.5 µM; fold change (FC) (Acinetobacter baumannii [8]): 64; MIC (Acinetobacter baumannii [3]): 100 µM; MIC (Acinetobacter baumannii [4]): 4 µM

Which results are given for `Nc1nc(-c2ccc(NC(=O)c3ccc(Cl)cc3)cc2)c[nH]1`?
MIC (Acinetobacter baumannii [1]): 4 µM; MIC (Acinetobacter baumannii [3]): ≥ 200 µM; MIC (Acinetobacter baumannii [4]): 16 µM

How did the MIC (Acinetobacter baumannii [14]) turn out when `Cl.Nc1nc(-c2ccc(NC(=O)c3cc(C(F)(F)F)cc(C(F)(F)F)c3)cc2)c[nH]1` was run?
The MIC was 8 µg/mL.

And the MIC (Acinetobacter baumannii [3])?
The MIC was 50 µM.

With `Cl.Nc1ncc(-c2ccc(NC(=O)c3ccc(Cl)cc3Cl)cc2)[nH]1` as the compound, how does the “fold change (FC)” value (Acinetobacter baumannii [8]) read?
The value was 8.

What about the MIC (Acinetobacter baumannii [3]) of the same compound?
The MIC was ≥ 200 µM.

What does the source list for `Nc1nc(-c2ccc(NC(=O)c3cc(Cl)c(Br)c(Cl)c3)cc2)c[nH]1`?
MIC (Acinetobacter baumannii [1]): 0.25 µM; MIC (Acinetobacter baumannii [3]): ≥ 200 µM; MIC (Acinetobacter baumannii [4]): 0.25 µM

How did the MIC (Acinetobacter baumannii [3]) turn out when `Nc1ncc(-c2ccc(NC(=O)c3cccc(I)c3)cc2)[nH]1` was run?
The MIC was ≥ 200 µM.

With `Cl.Nc1nc(-c2ccc(NC(=O)c3ccc(C(F)(F)F)c(Cl)c3)cc2F)c[nH]1` as the compound, how does the “fold change (FC)” value (Acinetobacter baumannii [9]) read?
The value was 4.

And the MIC (Acinetobacter baumannii [14])?
Its MIC is 0.25 µg/mL.

What about the “fold change (FC)” value (Acinetobacter baumannii [10]) of the same compound?
The value was 2.

And the MIC (Acinetobacter baumannii [11])?
The MIC was 16 µg/mL.

And the MIC (Acinetobacter baumannii [3])?
The MIC was 50 µM.

And the MIC (Acinetobacter baumannii [4])?
Its MIC is 8 µg/mL.

`Nc1nc(-c2ccc(NC(=O)c3ccc(F)cc3)cc2)c[nH]1` was tested. Which MIC (Acinetobacter baumannii [3]) did it give?
Its MIC is ≥ 200 µM.

Which results are given for `Nc1nc(-c2ccc(NC(=O)c3cccc(Cl)c3)cc2)c[nH]1`?
MIC (Acinetobacter baumannii [1]): 4 µM; MIC (Acinetobacter baumannii [3]): ≥ 200 µM; MIC (Acinetobacter baumannii [4]): 16 µM
